Results from patent US9309336B2, “Synthesis and antiscalant behavior of a novel polyzwitterionic acid” (King Fahd University of Petroleum and Minerals, priority 2013, dated 2016).
Where “and” joins values, the source holds several entries; their conditions need not be identical. Equal entries are not always repeated.

How the values were obtained:
[1] = Solubility of monomer 4 (observation at isolation); type: physicochemical
Description: Synthesis of 3-[Diallyl{3-(diethoxyphosphoryl)propyl}ammonio]propane-1-sulfonate (4) preferably occurs by the following method: under N2 at 70° C., a solution of diethyl 3-(diallylamino)propylphosphonate 2 (15.0 g, 54.5 mmol) and 3 (7.0 g, 57.3 mmol) in CH3CN (30 cm^3) was stirred for 60 h. The residue, after removal of acetonitrile, was crystallized from acetone (30 cm^3) in the presence of small amount of methanol to give white crystals of 4 (19.5 g, 90%). The extremely hygroscopic monomer is insoluble in acetone but soluble in methanol or water. Mp 140-142° C. (closed capillary); (Found: C, 47.9; H, 8.4; N, 3.4; S, 7.8%. C16H32NO6PS requires C, 48.35; H, 8.11; N, 3.52; S, 8.07%); νmax (KBr): 3402, 2985, 2940, 1644, 1479, 1428, 1394, 1213, 1042, 967, 875, 786, 733 and 605 cm^−1; δH (D2O) 1.22 (6H, t, J=7 Hz), 1.86 (2H, m), 1.96 (2H, m), 2.11 (2H, m), 2.84 (2H, t, J=7.5 Hz), 3.23 (2H, apparent t, J=10 Hz), 3.31 (2H, apparent t, J=10 Hz), 3.85 (4H, d, J=7 Hz), 4.04 (4H, m), 5.64 (4H, m), 5.89 (2H, m), (HOD: 4.65); δC (D2O) 15.83 (s, PCH2CH2), 16.47 (d, 2C, Me, ^3J (PC) 4.1 Hz), 18.29 (s, SCH2CH2), 21.45 (d, PCH2, ^1J (PC) 143 Hz), 47.97 (s, SCH2CH2CH2), 57.26 (s, SCH2CH2CH2), 58.32 (d, PCH2CH2CH2, ^3J (PC) 16.4 Hz), 61.72 (2C, ═CH—CH2, s), 64.38 (d, 2C, OCH2CH3, ^2J (PC) 6.2 Hz), 124.40 (2C, s, CH2=CH), 129.80 (2C, s, CH2═CH) (dioxane: 67.40 ppm); δP (202 MHz, D2O): 31.01 (s). DEPT 135 NMR analysis was carried out to assign the ^13C signals.

[2] = Potentiometric titration for protonation (basicity) constants; type: physicochemical; details: 23° C.; for Log K1^o (first protonation), Average / Log K2^o (second protonation), Average / n1 (first protonation), Average / n2 (second protonation), Average: average of runs 1-3, SD in last digit in parentheses
Description: Protonation constants (K1 and K2) of polymer 8 [ZH2^±=] and its corresponding monomer unit 11 [ZH2^±=] were determined by potentiometric titrations which were carried out in atmosphere of N2 in CO2-free water as described elsewhere using a solution (Tables 3 and 4) of PZDA 6 [ZH2^±] or monomer form 11 [ZH2^±=] in 200 cm^3 of salt-free water or 0.1 N NaCl (S. A. Ali, et al., J. Polym. Sc. A: Polym. Chem. 2010, 48, 5693-5703—incorporated herein by reference in its entirety). The Log K1 and Log K2 of the —P(═O)O^= (in 8 or 11) are calculated at each pH value by the Henderson-Hasselbalch eq 2 (Scheme 1) where a is the ratio [ZH^±−]eq/[Z]o and [ZH2^±]eq/[Z]o, respectively. The [ZH^±−]eq and [ZH2^±]eq represent the respective equilibrium concentrations of the first and second protonated species whereas [Z]o describes the initial concentration of repeating units.
For the determination of the second step protonation constant (log K2) of —P(═O)(OH)O^− (i.e. [ZH^±−]) using the titration of polymer 6 [ZH2^±] with NaOH, [Z]o and [ZH2^±]eq are related by [ZH2^±]eq=[Z]o−COH^−−[H^+]+[OH^−], where COH^− represent the added NaOH concentration. The equilibrium [H^+] and [OH^−] values were calculated from the pH value (W. K. Felty, J. Chem. Educ. 1978, 55, 576; R. Barbucci, et al., Macromolecules 1981, 14, 1203-1209—each incorporated herein by reference in its entirety). The first step protonation constant (log K1) involving the protonation of —P(═O)(O^−)2 (i.e. [Z^±=]) using volume of the titrant after deducting the equivalent volume from the total volume. In this case, α represents the ratio [ZH^±−]eq/[Z]o whereby [ZH^±−]eq equals [Z]o−COH^−−[H^+]+[OH^−]. For the titration of 11 [Z^±=] with HCl, the protonated species' concentration is given by: [ZHi=1,2]eq═CH^+−[H^+]+[OH^−].
Eq. 3 (Scheme 1) describes the apparent basicity constants of —P(═O)(O^−)2 where log K^o=pH at α=0.5 and n=1 in the case of sharp basicity constants.
The ‘n’ and log K^o as the respective slope and intercept were determined from the linear regression fit of pH vs. log [(1−α)/α)]. Protonation at the same time of the three basic sites: —PO3^=(log K1≈+8), —PO3H^− (log K2≈+3) and —SO3^−(log K3≈−2.1) (J. P. Guthrie, Can. J. Chem. 1978, 56, 2342-2354—incorporated herein by reference in its entirety) is not likely due to differences of their basicity constants by about 5 orders of magnitude (vide infra). Note that basicity constant log K of any base B is the pKa of its conjugate acid BH^+.

[3] = 0.1M NaCl, single runs (polymer runs 1, 2 in the presence of 1.5 mL of 0.1222M HCl)

| SMILES | solubility ([1]; acetone) | solubility ([1]; methanol) | solubility ([1]; water) | Log K1^o (first protonation), Average ([2]; 0.1M NaCl) | Log K2^o (second protonation), Average ([2]; 0.1M NaCl) | n1 (first protonation), Average ([2]; 0.1M NaCl) | n2 (second protonation), Average ([2]; 0.1M NaCl) | Log K1^o (first protonation) ([2]; 0.1M NaCl, single runs) | n1 (first protonation) ([2]; 0.1M NaCl, single runs) | Log K2^o (second protonation) [2, 3] | n2 (second protonation) [2, 3] | Log K1^o (first protonation), Average ([2]; Salt-Free water) | Log K2^o (second protonation), Average ([2]; Salt-Free water) | n1 (first protonation), Average ([2]; Salt-Free water) | n2 (second protonation), Average ([2]; Salt-Free water) | Log K1^o (first protonation) ([2]; Salt-Free water, single runs) | Log K2^o (second protonation) ([2]; Salt-Free water, single runs) | n1 (first protonation) ([2]; Salt-Free water, single runs) | n2 (second protonation) ([2]; Salt-Free water, single runs) |
| --- | --- | --- | --- | --- | --- | --- | --- | --- | --- | --- | --- | --- | --- | --- | --- | --- | --- | --- | --- |
| C=CC[N+](CC=C)(CCCP(=O)(OCC)OCC)CCCS(=O)(=O)[O-] [Monomer 4, 3-[diallyl{3-(diethoxyphosphoryl)propyl}ammonio]propane-1-sulfonate] | insoluble | soluble | soluble |  |  |  |  |  |  |  |  |  |  |  |  |  |  |  |  |
| C=CC[N+](CC=C)(CCCP(=O)([O-])[O-])CCCS(=O)(=O)[O-].[Na+].[Na+] [Monomer 11] |  |  |  | 7.12 (1) | 2.90 (5) | 1.03 (1) | 1.01 (4) | 7.12 and 7.11 and 7.13 | 1.03 and 1.04 | 2.91 and 2.84 and 2.94 | 0.993 and 1.06 and 0.990 | 7.53 | 2.74 (2) | 1.04 (1) | 1.02 (3) | 7.50 and 7.54 and 7.55 | 2.75 and 2.72 | 1.04 and 1.05 | 1.02 and 0.984 and 1.05 |
